Assay results reported in US4777167A, “Pharmaceutically useful substituted thiacycloalkeno [3,2-b]pyridines, compositions and method of use” (Ortho Pharmaceutical Corporation, priority 1987, dated 1988).

Columns and labels:
Aorta Muscle = test: Inhibition of aorta muscle contraction; format: cell-based; conditions: Table II; concentration 0.1 μM
calcium channels = molecular target: T1, calcium channels (Oryctolagus cuniculus, UniProt P15381); test: Inhibition of nitrendipine binding (3H-nitrendipine displacement, rabbit heart membranes); set-up: species or system rabbit (New Zealand white); conditions: Table II, 90 min, 4° C.
T1 construct: from tissue; host or cells: heart of female New Zealand white rabbits, membrane fraction (42,000×g pellet)
Description: (1) Inhibition of nitrendipine binding to calcium channels.
The assay for inhibition of nitrendipine binding follows the following procedure:
Female, New Zealand white rabbits (1-2 kg) are sacrificed by cervical dislocation, and the heart is immediately removed, cleaned, and chopped into small pieces. The tissue is homogenized in 5× volume of 0.05M Hepes buffer, pH 7.4. The homogenate is centrifuged at 4000×g for 10 minutes; the supernatant is recentrifuged at 42,000×g for 90 minutes. The resulting membrane pellet is resuspended (0.7 ml/g weight) in 0.05M Hepes, pH 7.4 and stored at -70° C. until used. Each tube of the binding assay contains ^3 H- nitrendipine (0.05-0.50 nM), buffer, membranes (0.10 ml), and test compound in a total volume of 1.0 ml. After 90 minutes at 4° C., the bound nitrendipine is separated from the unbound by filtration on Whatman GF/C fibers. After rinsing, the filters are dried and counted in a liquid scintillation counter.
Non-specific binding of ^3 H-nitrendipine (that amount bound in the presence of excess unlabelled nitrendipine) is subtracted from the total bound to obtain specifically bound radiolabeled nitrendipine. The amount of specifically bound nitrendipine in the presence of a test compound is compared to that amount bound in the absence of a compound. A percent displacement (or inhibition) can then be obtained.

trachealis muscle = test: Inhibition of calcium dependent smooth muscle contraction (KCl-challenged trachea); format: cell-based, dog; conditions: Canis lupus familiaris, Table II, read-out: Inhibition Trachea Muscle Contraction % Inhibition
Description: The test for inhibition of calcium dependent smooth muscle contraction is determined according to the following procedure:
Trachea from dogs sacrificed by excess KCl injection are stored overnight at 4° C. in oxygenated Krebs-Henseleit buffer. Tracheal rings, one cartilage segment wide (5-10 mm), are cut starting from the bronchial end. After cutting the cartilage, the trachealis muscle tissue is suspended in oxygenated Krebs-Henseleit buffer at 37° C. in a 25 ml tissue bath. After a 60 minutes equilibration period, the tissues are challenged with 10 μM carbachol. After 5 minutes the tissues are rinsed and allowed to rest 50 minutes. The tissues are then challenged with 50 mM KCl and, after 30 minutes, the contractions are quantitated. The tissues are then rinsed and reequilibrated for 50 minutes. Test compounds are then added for 10 minutes, and the tissue is rechallenged with 50 mMKcl. After 30 minutes, the contraction is recorded and used to determine the % inhibition of control.
The percent inhibition of smooth muscle contraction is calculated from response data before and after drug treatment. [formula] A rating is assigned to the compound depending upon the percent inhibition obtained.

T1 sequence (P15381 whole entry, other chains not shown): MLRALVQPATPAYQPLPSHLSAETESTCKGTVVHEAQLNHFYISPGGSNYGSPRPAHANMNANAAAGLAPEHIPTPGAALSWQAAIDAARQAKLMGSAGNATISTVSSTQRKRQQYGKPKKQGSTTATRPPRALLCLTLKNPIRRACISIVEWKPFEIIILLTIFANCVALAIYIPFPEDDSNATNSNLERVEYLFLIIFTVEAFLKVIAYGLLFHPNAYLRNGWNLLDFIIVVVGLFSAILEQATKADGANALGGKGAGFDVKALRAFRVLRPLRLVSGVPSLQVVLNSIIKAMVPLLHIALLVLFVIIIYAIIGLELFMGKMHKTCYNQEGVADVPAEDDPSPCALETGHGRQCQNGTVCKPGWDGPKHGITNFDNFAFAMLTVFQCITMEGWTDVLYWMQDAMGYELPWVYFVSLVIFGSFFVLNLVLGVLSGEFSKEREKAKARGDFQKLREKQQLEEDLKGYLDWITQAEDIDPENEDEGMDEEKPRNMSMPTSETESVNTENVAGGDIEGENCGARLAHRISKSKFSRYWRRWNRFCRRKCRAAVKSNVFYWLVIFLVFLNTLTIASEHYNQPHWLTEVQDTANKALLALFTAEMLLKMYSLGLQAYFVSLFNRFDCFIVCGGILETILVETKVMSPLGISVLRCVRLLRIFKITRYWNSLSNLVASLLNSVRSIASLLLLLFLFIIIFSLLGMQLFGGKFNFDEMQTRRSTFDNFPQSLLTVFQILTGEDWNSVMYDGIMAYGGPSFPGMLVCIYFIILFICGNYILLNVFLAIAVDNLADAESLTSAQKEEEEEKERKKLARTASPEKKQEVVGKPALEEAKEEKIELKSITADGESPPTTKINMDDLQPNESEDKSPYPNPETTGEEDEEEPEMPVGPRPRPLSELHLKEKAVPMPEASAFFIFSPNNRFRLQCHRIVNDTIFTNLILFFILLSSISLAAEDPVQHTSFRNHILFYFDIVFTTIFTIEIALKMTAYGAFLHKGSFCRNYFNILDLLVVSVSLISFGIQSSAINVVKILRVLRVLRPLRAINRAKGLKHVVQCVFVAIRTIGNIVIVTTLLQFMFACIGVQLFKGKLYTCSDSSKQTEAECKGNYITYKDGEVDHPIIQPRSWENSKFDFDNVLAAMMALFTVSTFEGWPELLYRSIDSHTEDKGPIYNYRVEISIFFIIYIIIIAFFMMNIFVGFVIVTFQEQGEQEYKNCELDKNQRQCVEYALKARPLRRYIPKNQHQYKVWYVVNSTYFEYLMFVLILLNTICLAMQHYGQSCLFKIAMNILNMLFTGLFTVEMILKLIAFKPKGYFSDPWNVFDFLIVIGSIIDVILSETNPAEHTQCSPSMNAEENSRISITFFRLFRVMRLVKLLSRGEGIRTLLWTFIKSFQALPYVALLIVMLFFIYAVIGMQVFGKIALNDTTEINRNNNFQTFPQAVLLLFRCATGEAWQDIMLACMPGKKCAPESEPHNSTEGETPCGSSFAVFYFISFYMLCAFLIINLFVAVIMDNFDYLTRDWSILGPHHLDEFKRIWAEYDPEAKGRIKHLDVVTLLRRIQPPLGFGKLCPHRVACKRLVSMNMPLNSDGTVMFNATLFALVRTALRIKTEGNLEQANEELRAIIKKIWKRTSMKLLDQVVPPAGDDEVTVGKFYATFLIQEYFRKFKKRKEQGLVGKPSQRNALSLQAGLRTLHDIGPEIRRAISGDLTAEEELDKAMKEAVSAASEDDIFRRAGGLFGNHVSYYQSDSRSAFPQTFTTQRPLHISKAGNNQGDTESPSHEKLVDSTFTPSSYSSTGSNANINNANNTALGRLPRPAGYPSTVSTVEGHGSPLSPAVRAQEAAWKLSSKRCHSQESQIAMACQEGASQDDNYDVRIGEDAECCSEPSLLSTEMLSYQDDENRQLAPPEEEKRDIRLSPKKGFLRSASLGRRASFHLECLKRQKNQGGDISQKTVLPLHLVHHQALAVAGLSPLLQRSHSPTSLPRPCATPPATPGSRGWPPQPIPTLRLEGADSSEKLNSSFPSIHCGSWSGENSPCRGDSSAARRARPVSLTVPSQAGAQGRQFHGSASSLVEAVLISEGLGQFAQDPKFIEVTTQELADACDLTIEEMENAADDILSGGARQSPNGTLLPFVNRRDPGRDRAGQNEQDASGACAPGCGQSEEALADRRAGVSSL
T1 sequence (P13806 27-960 partner limits assumed, other chains not shown): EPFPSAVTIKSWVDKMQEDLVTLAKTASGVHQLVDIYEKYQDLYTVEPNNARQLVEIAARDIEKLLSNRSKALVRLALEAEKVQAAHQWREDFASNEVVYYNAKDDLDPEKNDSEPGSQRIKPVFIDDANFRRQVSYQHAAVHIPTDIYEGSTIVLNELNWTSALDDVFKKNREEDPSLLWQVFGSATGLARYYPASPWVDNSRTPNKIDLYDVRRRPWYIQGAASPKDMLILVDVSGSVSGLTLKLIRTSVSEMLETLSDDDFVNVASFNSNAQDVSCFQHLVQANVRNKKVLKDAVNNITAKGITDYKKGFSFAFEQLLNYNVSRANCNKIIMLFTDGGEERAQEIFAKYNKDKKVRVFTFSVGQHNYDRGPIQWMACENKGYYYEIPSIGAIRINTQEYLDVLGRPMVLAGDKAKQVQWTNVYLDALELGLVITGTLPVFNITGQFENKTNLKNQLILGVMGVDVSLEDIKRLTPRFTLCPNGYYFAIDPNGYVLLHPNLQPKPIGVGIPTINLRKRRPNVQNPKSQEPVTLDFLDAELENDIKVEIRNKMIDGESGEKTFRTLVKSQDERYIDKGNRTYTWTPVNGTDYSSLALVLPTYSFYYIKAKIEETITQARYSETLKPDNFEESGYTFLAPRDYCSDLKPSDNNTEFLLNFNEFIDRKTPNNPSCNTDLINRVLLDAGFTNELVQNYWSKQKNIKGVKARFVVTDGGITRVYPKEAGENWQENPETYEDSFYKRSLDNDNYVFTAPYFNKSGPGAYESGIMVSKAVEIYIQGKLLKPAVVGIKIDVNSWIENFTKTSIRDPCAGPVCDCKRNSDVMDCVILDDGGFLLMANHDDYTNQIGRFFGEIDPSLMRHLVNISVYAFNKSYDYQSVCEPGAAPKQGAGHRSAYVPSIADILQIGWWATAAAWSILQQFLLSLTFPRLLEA
T1 sequence (P13806 961-1106 partner limits assumed, other chains not shown): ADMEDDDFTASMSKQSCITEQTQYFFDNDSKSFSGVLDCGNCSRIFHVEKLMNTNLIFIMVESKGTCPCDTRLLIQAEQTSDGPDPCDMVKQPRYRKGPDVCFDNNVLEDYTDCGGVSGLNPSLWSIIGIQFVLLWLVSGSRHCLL

Row | Compound | inhibition at 0.1 µM (Aorta Muscle) [%] | IC50 (calcium channels) [nM] | inhibition at 0.1 µM (trachealis muscle; concentration 0.1 μM) [%] | inhibition at 2 µM (trachealis muscle; concentration 2.0 μM) [%]
1 | CC1=C(C(=O)OCCN(C)Cc2ccccc2)C(c2c(F)c(F)c(F)c(F)c2F)C2=C(CCCCCS2(=O)=O)N1 (stereo not drawn) [5 C6 F5, N-Benzyl-N-methylaminoethyl 10-(2,3,4,5,6-pentafluorophenyl)-3,4,5,6,7,10-hexahydro-8-methyl-1,1-dioxo-2H-thiacycloocteno[3,2-b]pyridine-9-carboxylate] | 70 | 87 | 50 | –
2 | CC1=C(C(=O)OCCN(C)Cc2ccccc2)C(c2cccc(C(F)(F)F)c2Cl)C2=C(CCCCCCS2(=O)=O)N1 (stereo not drawn) [6 2-Cl,3-CF3C6 H3, N-Benzyl-N-methylaminoethyl 19-(2-chloro-3-trifluoromethylphenyl)-2,3,4,5,6,7,8,11-octahydro-9-methyl-1,1-dioxothiacyclononeno[3,2-b]pyridine-10-carboxylate] | 30 | 470 | – | 46
